Patent publication US8298993B2, “Herbicidal composition and method of use thereof” (Syngenta Crop Protection LLC, priority 2006, dated 2012)

What was measured:
[1] = system: large crabgrass (Digitaria sanguinalis); assay: Glasshouse trial, control of large crabgrass, post-emergence application; format: in vivo
Method: A glasshouse trial was carried out. Large crabgrass seeds were sown into standard glasshouse potting mix (1:1 v/v Promix:Vero sand soil) contained in 10 cm square plastic pots. Treatments were replicated three times. Mesotrione (in the form Callisto® 480SE) was applied post-emergence to large crabgrass (Digitaria sanguinalis) at either 12 g ai/ha or 24 g ai/ha with or without s-metolachlor (in the form Dual Magnum®). When used, s-metolachlor was applied at a rate of 500 g ai/ha or 1000 g ai/ha. The adjuvant system was X-77 at 0.1% v/v in deionised water. 200 liters of herbicide/adjuvant system was used per hectare. General weed control was evaluated at 7 and 14 days after treatment (DAT). It is noted that all herbicides were applied at reduced field rates because herbicide effects are magnified in a glasshouse environment. Rates were chosen to give a 50 to 70% level of control with herbicides applied alone as this allows for detection of any synergistic effect when tank mixtures are used. […] The results were evaluated using the Colby formula. The expected result for (A+B) is (A+B)−(A×B/100) where A and B are the ‘observed’ results for A and B on their own.

large crabgrass = assay: Control of large crabgrass, pre-emergent application of the herbicides; format: in vivo, Digitaria sanguinalis; settings: s-metolachlor 5 g ai/ha in the absence of mesotrione
[2] = system: white clover (Trifolium repens); assay: Glasshouse trial, control of white clover, post-emergence application; format: in vivo; settings: 16 DAT
Method: A glasshouse trial was carried out. White clover seeds were sown into standard glasshouse potting mix (1:1 v/v Promix:Vero sand soil) contained in 10 cm square plastic pots. Treatments were replicated three times. Mesotrione (in the form Callisto®480SE) was applied post-emergence to white clover (Trifolium repens) at either 50 g ai/ha or 100 g ai/ha with or without s-metolachlor (in the form Dual Magnum®). […] The adjuvant system was X-77 at 0.1% v/v in deionised water. 200 liters of herbicide/adjuvant system was used per hectare. General weed control was evaluated at 10 and 16 days after treatment (DAT). It is noted that all herbicides were applied at reduced field rates because herbicide effects are magnified in a glasshouse environment. Rates were chosen to give a 50 to 70% level of control with herbicides applied alone as this allows for detection of any synergistic effect when tank mixtures are used. […] The results were evaluated using the Colby formula. The expected result for (A+B) is (A+B)−(A×B/100) where A and B are the ‘observed’ results for A and B on their own.

Row | Compound | control of large crabgrass, herbicide alone ([1]; first experiment, s-metolachlor on its own (500 or 1000 g ai/ha), post-emergence, 14 DAT) | control of large crabgrass, herbicide alone ([1]; repeat experiment, s-metolachlor 500 g ai/ha in the absence of mesotrione, 14DAT) [%] | control of large crabgrass, herbicide alone ([1]; repeat experiment, s-metolachlor 1000 g ai/ha in the absence of mesotrione, 14DAT) [%] | control of large crabgrass, herbicide alone (large crabgrass) [%] | control of white clover, herbicide alone ([2]; s-metolachlor on its own at 500 g ai/ha) [%] | control of large crabgrass, herbicide alone ([1]; mesotrione alone, post-emergence, 7 DAT) | control of white clover, herbicide alone ([2]; mesotrione alone at the lower rate (50 g ai/ha)) [%]
1 | s-metolachlor | no control | 7 | 7 | 95 | 3 | – | –
2 | CS(=O)(=O)c1ccc(C(=O)C2C(=O)CCCC2=O)c([N+](=O)[O-])c1 [mesotrione, 2-(2′-nitro-4′-methylsulphonylbenzoyl)-1,3-cyclohexanedione] | – | – | – | – | – | relatively high | 32
